Measured values from publication PMC2009863, “Pharmacokinetic considerations in testing hypoxic cell radiosensitizers in mouse tumours” (British Journal of Cancer, 1979).
Several values for one entry are separate records, joined by “and”; a condition that tells them apart may be missing. Identical values can stand only once. Like-named read-outs stand apart in the source and are kept apart here.

Experiments:
[1] = cited from earlier work; for tumour concentration as % of corresponding plasma concentration: clinical studies, HPLC, after MIS administration, ref Wiltshire et al.
[2] = Whole blood MIS and Ro-05-9963 by HPLC after MIS in control, sham-operated and kidney-ligated mice; details: for half-life: mouse, in vivo, 5 mmol/kg, plasma half-life
Description: (§1) Several groups are now pursuing such a goal (Adams, 1977; Brown et al., 1978; Wardman, 1977). […] Specifically the two ques- tions were: (a) How much does the plasma half-life affect the peak plasma level? (b) How much does the plasma half-life affect the tumour/plasma ratio of drug concentrations? MATERIALS AND METHODS A description of the procedures for implanta- tion of tumours, and irradiation and assay of the viability of the tumour cells has been published previously (Brown, 1975). Brieflv, the EMT6/St/lu tumour was transplanted into 3-month-old, syngeneic BALB/c female mice, weighing 20-25 g, and irradiated at a diameter of 6-7 mm. Immediately after irradiation the tumours were removed and minced. The only modification was that the single-cell suspensions were prepared by a 30 min disaggregation using an enzyme "'cock- tail" of 0-05% pronase, 0.02% DNAase and 21 0 02% collagenase (Brown et al., in prepara- tion). Cell viability was assayed by plating appropriate dilutions of the tumour cells into Waymouth's medium containing 15% foetal calf serum in polystyrene Petri dishes, and counting colonies 13 days later. […] Bilateral kidney ligation was performed on anaesthetized mice by exteriorizing the kidneys through a 1 cm incision in the skin and abdominal wall and tying a ligature around the renal artery and vein at the renal pelvis. The abdominal incision, which was adjoining and parallel to the line of attach- ment of the abdominal wall with the dorsal muscles, was then closed tightly with 4 or 5 stitches, and the skin incision closed with metal clips. The sham operation was identical in all respects except for ligation of the renal artery and vein. […] Plasma (or whole blood) and tumour levels of 2-nitroimidazoles were determined in different ways in the two laboratories rep- resented. In the first method, represented in Tables I and II and Fig. 1, tumour and plasma levels were determined on killing of individual mice, and were measured spectrophotomet- rically using UV absorption at 318 nm. This measures the total concentration of all 2-nitroimidazoles in the sample. The pro- cedure used was a modification of that described by Chapman et al. (1974). To measure plasma levels, 0 4 ml of plasma (collected from heparinized whole blood by cardiac puncture at the time of killing) was added to 2-6 nil absolute ethanol. The mixture was vortexed for 1 min, allowed to stand for 10 min and then centrifuged for 5 min at high speed (1000 g). Tumour levels were determined by preparing a 20% (w/v) homogenate of tumour in distilled water, and adding a 0 4 ml aliquot of homogenate to 2-6 ml absolute ethanol as described above. […] At appropriate times after MIS administration, serial blood samples were taken from the tail of the same mouse. Duplicate 5 /A samples were collected in Microcap pipettes (Drummond Scientific Company), mixed with 45 µl water and stored at -20?C. Finally (usually at 10-12-5 h) the mice were bled by cardiac puncture and the undiluted heparinized whole blood was stored at -20?C.

[3] = Description: Several groups are now pursuing such a goal (Adams, 1977; Brown et al., 1978; Wardman, 1977). […] Specifically the two ques- tions were: (a) How much does the plasma half-life affect the peak plasma level? (b) How much does the plasma half-life affect the tumour/plasma ratio of drug concentrations? MATERIALS AND METHODS A description of the procedures for implanta- tion of tumours, and irradiation and assay of the viability of the tumour cells has been published previously (Brown, 1975). Brieflv, the EMT6/St/lu tumour was transplanted into 3-month-old, syngeneic BALB/c female mice, weighing 20-25 g, and irradiated at a diameter of 6-7 mm. Immediately after irradiation the tumours were removed and minced. The only modification was that the single-cell suspensions were prepared by a 30 min disaggregation using an enzyme "'cock- tail" of 0-05% pronase, 0.02% DNAase and 21 0 02% collagenase (Brown et al., in prepara- tion). Cell viability was assayed by plating appropriate dilutions of the tumour cells into Waymouth's medium containing 15% foetal calf serum in polystyrene Petri dishes, and counting colonies 13 days later. […] Bilateral kidney ligation was performed on anaesthetized mice by exteriorizing the kidneys through a 1 cm incision in the skin and abdominal wall and tying a ligature around the renal artery and vein at the renal pelvis. […] Plasma (or whole blood) and tumour levels of 2-nitroimidazoles were determined in different ways in the two laboratories rep- resented. In the first method, represented in Tables I and II and Fig. 1, tumour and plasma levels were determined on killing of individual mice, and were measured spectrophotomet- rically using UV absorption at 318 nm. […] Tumour levels were determined by preparing a 20% (w/v) homogenate of tumour in distilled water, and adding a 0 4 ml aliquot of homogenate to 2-6 ml absolute ethanol as described above. […]
[4] = cited from earlier work
[5] = Acute toxicity LD50/2d of MIS and Ro-05-9963; details: mouse, in vivo
Description: Several groups are now pursuing such a goal (Adams, 1977; Brown et al., 1978; Wardman, 1977). […] Specifically the two ques- tions were: (a) How much does the plasma half-life affect the peak plasma level? (b) How much does the plasma half-life affect the tumour/plasma ratio of drug concentrations? MATERIALS AND METHODS A description of the procedures for implanta- tion of tumours, and irradiation and assay of the viability of the tumour cells has been published previously (Brown, 1975). Brieflv, the EMT6/St/lu tumour was transplanted into 3-month-old, syngeneic BALB/c female mice, weighing 20-25 g, and irradiated at a diameter of 6-7 mm. Immediately after irradiation the tumours were removed and minced. […] Plasma (or whole blood) and tumour levels of 2-nitroimidazoles were determined in different ways in the two laboratories rep- resented. In the first method, represented in Tables I and II and Fig. 1, tumour and plasma levels were determined on killing of individual mice, and were measured spectrophotomet- rically using UV absorption at 318 nm. […] Tumour levels were determined by preparing a 20% (w/v) homogenate of tumour in distilled water, and adding a 0 4 ml aliquot of homogenate to 2-6 ml absolute ethanol as described above. […]

[6] = Plasma and tumour levels of total 2-nitroimidazoles, UV spectrophotometric assay at 318 nm, EMT6 tumour-bearing mice, normal or bilateral kidney ligation; details: for Plasma concn. / Tumour concn.: Table I, 5 mmol/kg i.p.; for Plasma concn. / Tumour concn. / Plasma concentration / Tumour concentration: individual mice; for Plasma concentration, Mean / Tumour concentration, Mean / Plasma concentration / Tumour concentration: Table II, 5 mmol/kg
Description: as §1

[7] = test system: V-79 cells; details: cited from earlier work
[8] = design: method as in Adams et al., 1976; Brown et al., 1978; details: ref Adams et al., 1976; Brown et al., 1978; cited from earlier work
[9] = BKL Yes, 38 min after injection

In the case of `COCC(O)Cn1ccnc1[N+](=O)[O-]` (stereo not drawn) [MIS, 1-(2-nitroimidazol-1-yl)-3-methoxypropan-2-ol], the “tumour concentration as % of corresponding plasma concentration” value ([1]; 1978, Workman et al., 1978b) is given as 50-70%, the “tumour concentration as % of plasma levels” value ([1]; human tumours, ref Gray et al., 1976, Dische et al., 1977, Urtasun et al.) is given as 42-107% and the half-life in man ([1]; plasma, ref Foster et al., 1975, Dische et al., 1977, Wiltshire et al., 1978, Workman et al., 1978b) is given as ~12 h. It also gave a half-life ([2]; BALB/c, bilateral kidney ligation before injection) of 10 to 11 h, a half-life ([2]; BALB/c, normal mice) of ~2 h and a half-life ([2]; ip, bilateral kidney ligation before injection) of 10 h. For the same molecule, the “glucuronide conjugates of MIS and Ro-05-9963 in plasma” value ([2]; normal and sham-operated mice after MIS) was “not found”, the “rectal temperature below uninjected mice” value ([3]; 9 h after MIS injection, controls) was ≤ 3 °C and the “rectal temperature below the uninjected level” value ([3]; 9 h after MIS injection, kidney-ligated mice) was 7 °C. For the same molecule, the rectal temperature drop ([3]; first 5 h after MIS injection, all 3 groups) was 5.0 °C, the “uptake of (2-14C) MIS as % of plasma concentration” value ([4]; MT mouse tumour and some normal mouse tissues, particularly at less than 6 h, ref Flockhart et al. (1978c)) was “less than 100%” and the “tumour concentration as % of that in blood” value ([4]; different mouse tumours, ref McNally et al. (1978)) was 18-72%. For the same molecule, the LD50 at 2 d [5] was 1830 mg/kg.

With `O=[N+]([O-])c1nccn1CC(O)CO` (stereo not drawn) [Ro-05-9963, 1-(2-nitroimidazol-1-yl)-2,3-pro-pandiol] the “tumour levels lower than plasma concentration” value ([6]; EMT6 tumour) was 30-40%, the plasma half-life ([6]; Fig. 1, normal BALB/c mice, equal peak plasma levels: MIS 5 mmol/kg, Ro-05-9963 10 mmol/kg i.p.) was 0.55 h and the Plasma concn. ([6]; 30 min after inj.) was 2 to 8 mM and 2 to 4 mM and 2 to 6 mM. For the same molecule, the Tumour concn. ([6]; 30 min after inj.) was 0-77 mM and 1.5 mM and 1-1 mM, the Plasma concn. ([6]; 37.5 min after inj.) was 2-4 mM (2×) and 2-5 mM and 0-88 mM and the Tumour concn. ([6]; 37.5 min after inj.) was 2-4 mM and 1-7 mM (2×). The Plasma concn. ([6]; 45 min after inj.) was 1 to 5 mM and 0 to 38 mM and 1 to 2 mM, the Tumour concn. ([6]; 45 min after inj.) was 0 to 74 mM and 0 to 76 mM and 0 to 25 mM and the “Plasma concentration, Mean” value ([6]; BKL No, 38 min after injection) was 1000 to 4000 µM. For the same molecule, the “Tumour concentration, Mean” value ([6]; BKL No, 38 min after injection) was 1-1 mM, the “Plasma concentration, Mean” value ([6]; BKL Yes, 6 h after injection) was 4000 to 8000 µM and the “Tumour concentration, Mean” value ([6]; BKL Yes, 6 h after injection) was 2 to 8 mM. The Plasma concentration ([6]; BKL No, 38 min after injection) was 0 to 42 mM and 0 to 51 mM and 1 to 93 mM and 2 to 16 mM and 2 to 36 mM and 1 to 27 mM, the Tumour concentration ([6]; BKL No, 38 min after injection) was 0 to 24 mM and 0 to 25 mM and 2 to 35 mM and 1 to 30 mM and 1 to 58 mM and 0 to 90 mM and the Plasma concentration [6, 9] was 4.7 mM (2×) and 5.4 mM and 4-9 mM. For the same molecule, the Tumour concentration [6, 9] was 4.3 mM and 2 to 4 mM and 2 to 8 mM and 1 to 6 mM, the Plasma concentration ([6]; BKL Yes, 6 h after injection) was 5.9 mM and 4 to 6 mM and 4 to 7 mM and the Tumour concentration ([6]; BKL Yes, 6 h after injection) was 2 to 3 mM and 2 to 9 mM and 3 to 7 mM. The “plasma and tumour concentrations less than those of MIS, factor” value ([6]; equimolar injected doses, normal mice) was ≥ 2, the “tumour concentration as % of corresponding plasma concentration” value ([1]; 1978, Workman et al., 1978b) was 50-70% and the “proportion of Ro-05-9963 to total non-conjugated 2-nitroimidazoles” value ([2]; 38 min after MIS injection, control and nephrectomized mice) was 5%. For the same molecule, the “proportion of Ro-05-9963 to total non-conjugated 2-nitroimidazoles” value ([2]; 6.5 h after MIS injection, nephrectomized mice) was 22%, the “proportion of Ro-05-9963 to total non-conjugated 2-nitroimidazoles” value ([2]; 6.5 h after MIS injection, normal mice) was 24% and the “radiosensitizing effectiveness compared with MIS” value ([7]; V-79 cells in vitro, ref Adams et al. (1976)) was “slightly less effective”. For the same molecule, the “radiosensitizing effectiveness compared with MIS” value ([7]; in vitro, ref Flockhart et al. (1968b)) was “slightly more so” and the “lipophilicity compared with MIS” value [8] was “considerably less lipophilic”.
